Tests used:
NCI-H716 = assay: GLP-1 secretion in NCI-H716 L-cells, GLP-1 concentration by ELISA; assay type: cell-based, human; settings: NCI-H716 cells pre-treated 48 hours with inhibitor
Description: Glucagon-like peptide-1 (GLP-1) has numerous physiological functions, including enhancement of glucose-stimulated insulin secretion, stimulation of β-cell anti-apoptosis and proliferation and inhibition of glucagon secretion, food intake and gastric emptying. These antidiabetic properties of GLP-1 have generated intense interest in the use of this short peptide and its agonists for the treatment of patients with type 2 diabetes. A better understanding of the underlying mechanism of GLP-1 secretion may lead to novel approaches used for the treatment of type 2 diabetes. TCF7L2 is the most strongly associated locus with type 2 diabetes and has been known to bind with the promoter region of the proglucagon gene for many years. […] As such, we investigated if existing PARP-1 inhibitors, previously tested in oncology studies, could have a GLP-1 agonist effect. We leveraged the standard human L-cell line, NCI-H716, for GLP-1 secretion assessment to investigate this possible link. We pre-treated the cells for 48 hours with three different PARP-1 inhibitors, Olaparib, Rucaparib and Iniparib, with or without glucose stimulation (16.8 mM). We measured the resulting GLP-1 concentration using an ELISA kit (Millipore).

[1] = test system: SNP rs7903146 region of TCF7L2 (HCT116 nuclear extracts); assay: SILAC oligo pull-down quantifying protein binding to the SNP rs7903146 oligonucleotide with and without insulin treatment; assay type: cell-based, human; settings: HCT116 cells, 1 uM insulin for 1 hour
Method: Human HCT 116 cells were cultured in DMEM (4.5 g/l glucose, 10% FCS, 100 U/mL penicillin and 100 íg/mL streptomycin). For insulin stimulation experiments, cells were treated with 1 uM insulin for 1 hour. For SILAC experiments, Cultures were grown according to standard cell-culture procedures in SILAC-light and SILAC-heavy labeled Dulbecco's Modified Eagle Medium (DMEM, ThermoFisher) supplied with 10% dialyzed fetal bovine serum (FBS), ^13C6-lysine and ^13C6-arginine. Cells were washed by cold phosphate-buffered saline (PBS) and harvested by scraping, centrifugation for 5 min at 5000 rpm at 4° C. 10^8 Cells were lysed in 250 ul low salt buffer (10 mM HEPES, 1.5 mM MgCl2, 10 mM KCl, 0.5% NP-40, proteasome inhibitor, phosphatase inhibitor, 10% glycerol, pH 7.9) by incubation on ice for 20 min with vortex 10 seconds per 5 minutes. The nuclei were separated from cytoplasmic fraction by centrifugation 10,000 rpm for 1 min at 4° C. The nuclei pellets were washed once by cold low salt buffer, harvested by centrifugation. […]
The sample was digested with trypsin and analyzed with nanoLC/MS/MS at the Penn Proteomics Core. […] The data were analyzed with Sequest (ThermoFinnigan, San Jose, Calif.; version SRF v. 5). […] The quantification of the SILAC peaks was performed with ProteolQ with customized modification so that the software can use the zoom scanned SLICA peaks for quantification.
To investigate dynamic binding of Parp-1, ATP-dependent RNA helicase A and Thrap3 for the SNP rs7903146 region, we used stable isotope labeling with amino acids in cell culture (SILAC) (Ong, Blagoev et al. 2002) to quantify the binding affinity changes between with and without insulin treatment.
The heavy cells were isotopically labeled in SILAC medium supplied with ^13C6-lysine and ^13C6-arginine and treated with insulin, while the light cells […] served as a control. […] With this approach, we quantified the relative protein abundances including Parp-1, ATP-dependent RNA helicase A and Thrap3 between treatment and without treatment of insulin.

[2] = absence of glucose, compared with glucose-elevated level
[3] = with glucose stimulation (16.8 mM)

Compound: NC(=O)c1ccc(I)c([N+](=O)[O-])c1 [Iniparib]
- GLP-1 secretion (GLP-1 concentration by ELISA) (NCI-H716; [2]): equal or greater level of GLP-1 secretion
- GLP-1 secretion (GLP-1 concentration by ELISA) (NCI-H716; [3]): elevated further

Compound: O=C(c1cc(Cc2n[nH]c(=O)c3ccccc23)ccc1F)N1CCN(C(=O)C2CC2)CC1 [Olaparib]
- GLP-1 secretion (GLP-1 concentration by ELISA) (NCI-H716; [2]): equal or greater level of GLP-1 secretion
- GLP-1 secretion (GLP-1 concentration by ELISA) (NCI-H716; [3]): elevated further

Compound: CNCc1ccc(-c2[nH]c3cc(F)cc4c3c2CCNC4=O)cc1 [Rucaparib]
- GLP-1 secretion (GLP-1 concentration by ELISA) (NCI-H716; [2]): equal or greater level of GLP-1 secretion
- GLP-1 secretion (GLP-1 concentration by ELISA) (NCI-H716; [3]): elevated further

Compound: insulin
- ATP-dependent RNA helicase A binding to rs7903146 oligo, increase upon insulin stimulation [1]: 12 fold
- Parp-1 binding to rs7903146 oligo, up-regulation upon insulin stimulation [1]: 20%
- Thrap3 binding to rs7903146 oligo, increase upon insulin stimulation [1]: 7 fold
